The record followed here is ChEMBL document CHEMBL1141145, “A chiral benzoquinolizine-2-carboxylic acid arginine salt active against vancomycin-resistant Staphylococcus aureus” (J Med Chem, 2005).

Series [1] concerns Mus musculus. The experiment in a line: Protection of mice infected with MRSA-32 cell suspension after oral administration of compound. The conditions noted are these: Mus musculus, MRSA-32, po; read-out: ED50. The class given is functional.
Series [2] concerns Staphylococcus aureus. The experiment in a line: Minimum inhibitory concentration against methicillin susceptible Staphylococcus aureus before esterase action in rat serum. Type of series: functional.
Series [3] has as its system Staphylococcus aureus. The experiment in a line: Minimum inhibitory concentration against methicillin susceptible Staphylococcus aureus after esterase action in rat serum. Type of series: functional.
A short description of series [4]: physchem. The following applies: octanol/water, pH 7.4.
Series [5] is described as follows: physchem.
The nature of series [6]: physchem. The source holds these as a separate data set.
Series [7] in a line: physchem. The conditions noted are these: octanol/water, pH 2.
Series [8] has as its system Mus musculus. The experiment in a line: Efficacy against mice infected with MRSA-33 upon s.c. administration. The class given is functional. The conditions noted are these: sc.
In series [9] the test system is Mus musculus. Nature of the series: Efficacy against mice infected with MRSA-32 upon s.c. administration. Type of series: functional. The conditions noted are these: MRSA-32, sc.
Series [10] has as its system Mus musculus. Nature of the series: Efficacy against mice infected with Staphylococcus aureus ATCC 25923 upon s.c. administration. The class given is functional. The following applies: sc.
Series [11] deals with Staphylococcus aureus. Nature of the series: Minimum inhibitory concentration against methicillin susceptible Staphylococcus aureus. The class given is functional. The following applies: Staphylococcus aureus; read-out: MIC.
A further series concerns Rattus norvegicus. The experiment in a line: Amount of drug at which at 14 days of daily administration produced no venous blockage or phlebitis in rats. The class given is functional.
In series [12] the test system is Staphylococcus aureus. The experiment in a line: Minimum inhibitory concentration against vancomycin-resistant Staphylococcus aureus (Hershey). The class given is functional.
The test system of series [13] is Staphylococcus aureus. The experiment in a line: Minimum inhibitory concentration against vancomycin intermediate Staphylococcus aureus MU 3. Type of series: functional.
For the next series, the system named is Klebsiella pneumoniae. The experiment in a line: Minimum inhibitory concentration against Klebsiella pneumoniae ATCC 10031. The class given is functional.
The test system of series [14] is Staphylococcus aureus. The experiment in a line: microbe, parasite or virus in culture.
The test system of a further series is Streptococcus agalactiae. Nature of the series: Minimum inhibitory concentration against Streptococcus agalactiae ATCC 13813. The class given is functional.
Series [15] deals with Staphylococcus aureus. The experiment in a line: Minimum inhibitory concentration against Vancomycin intermediate Staphylococcus aureus MU 50. The class given is functional.
Another series has as its system Enterococcus faecalis. The experiment in a line: Minimum inhibitory concentration against Enterococcus faecalis ATCC 29212. The class given is functional.
The test system of series [16] is Staphylococcus aureus. The experiment in a line: Minimum inhibitory concentration against Staphylococcus aureus ATCC 25923. Type of series: functional.
Series [17] concerns Staphylococcus aureus. Nature of the series: microbe, parasite or virus in culture. The source holds these as a separate data set.
The subject of series [18] is Staphylococcus saprophyticus. The experiment in a line: Minimum inhibitory concentration against Staphylococcus saprophyticus ATCC 15305. Type of series: functional.
The test system of another series is Streptococcus sanguinis. The experiment in a line: Minimum inhibitory concentration against Streptococcus sanguis ATCC 10556. The class given is functional.
Series [19] concerns Staphylococcus haemolyticus. The experiment in a line: Minimum inhibitory concentration against Staphylococcus haemolyticus ATCC 29970. The class given is functional.
Series [20] has as its system Staphylococcus aureus. Nature of the series: microbe, parasite or virus in culture. The source holds these as a separate data set.
In the next series the test system is Phocaeicola vulgatus. The experiment in a line: Minimum inhibitory concentration against Bacteroides vulgatus ATCC 29327. Type of series: functional.
The next series has as its system Streptococcus pyogenes. Nature of the series: Minimum inhibitory concentration against Streptococcus pyogenes ATCC 19615. The class given is functional.
Series [21] concerns Staphylococcus aureus. Nature of the series: Minimum inhibitory concentration against vancomycin intermediate Staphylococcus aureus MU 50. The class given is functional.

Converted amounts (≈) assume the structure as drawn. Numbered stars: 1 amine (or outer) side, 2 acyl side, 3 side chain; on linkers, the order of the positions; unused ones are H or OH. Bridge positions count the residues as written; N and C are the ends. Square brackets hold non-standard residues; d marks the D form. Peptide text beside a SMILES is read from it. * marks the point of attachment. X1 = O=C1C[C@@H](C(=O)[*:2])N([*:1])C[C@H]1CS[C@@H]1CN2CCC1CC2; NMePhe(4-NMe2) = CN[C@@H](Cc1ccc(N(C)C)cc1)C(=O)O; Picolinoyl(3-OH) = O=C(c1ncccc1O)*; Phg = N[C@H](C(=O)O)c1ccccc1; dAbu = CC[C@@H](N)C(=O)O

What is called ED50 is the dose at which the effect has come halfway, by size or by number of responders. Consider `C[C@H]1CCc2c(N3CCC(OC(=O)[C@H](CCC/N=C(\N)N[N+](=O)[O-])NC(=O)[C@@H](N)CCC/N=C(\N)N[N+](=O)[O-])CC3)c(F)cc3c(=O)c(C(=O)O)cn1c23.O=C(O)C(F)(F)F`, for which the ED50 in the series on Mus musculus [1] is over 75 mg/kg. Besides, the MIC with Staphylococcus aureus [2] was determined as 0.5 µg/mL; in the series on Staphylococcus aureus [3], 0.12 µg/mL.
As a reminder, the logD is the decadic logarithm of the distribution of all forms, ionised or not, between an organic phase and buffer at a given pH. A lower logD goes with lower lipophilicity. Usually pKa stands for the negative logarithm of the acid dissociation constant. A higher pKa goes with a group that holds its proton tightly. Regarding `C[C@@H]1CN(c2c(F)c(N)c3c(=O)c(C(=O)O)cn(C4CC4)c3c2F)C[C@H](C)N1` [SPARFLOXACIN], the logD in the series “physchem [4]” was -0.02; in the series “physchem [7]” it was -0.86. For the same compound, the pKa in “physchem [5]” was 9.38; in the series “physchem [6]”, 6.43.
Turning to `CC(=O)NC[C@H]1CN(c2ccc(N3CCOCC3)c(F)c2)C(=O)O1` [LINEZOLID], the figures for the ED50 with Mus musculus [8], in the series on Mus musculus [9] and in the series with Mus musculus [10] were 3.1 mg/kg, 1.14 mg/kg and 2.4 mg/kg, respectively.
`COC(=O)c1cn2c3c(c(N4CCC(O)CC4)c(F)cc3c1=O)CC[C@@H]2C`: the median effective dose (ED50) in the series on Mus musculus [1] was over 100 mg/kg. Further, the results for the MIC against Staphylococcus aureus [2] and in the series with Staphylococcus aureus [3] were 8 µg/mL (≈ 21.4 µM) and 1 µg/mL (≈ 2.67 µM), respectively.
Consider `C[C@H]1CCc2c(N3CCC(OC(=O)[C@@H](N)CCC/N=C(\N)N[N+](=O)[O-])CC3)c(F)cc3c(=O)c(C(=O)O)cn1c23.O=C(O)C(F)(F)F`, for which the ED50 in the series with Mus musculus [1] was over 75 mg/kg. Further, the MIC was 0.25 µg/mL in the series with Staphylococcus aureus [2] and 0.06 µg/mL against Staphylococcus aureus [3].
Consider `C[C@H]1CCc2c(N3CCC(O)CC3)c(F)cc3c(=O)c(C(=O)[O-])cn1c23.[Na+]`, for which the ED50 in the series on Mus musculus [1] is 60 mg/kg. The MIC with Staphylococcus aureus [11] worked out at 0.03 µg/mL. In the series on Rattus norvegicus, this compound registered an NOEL of under 250 mg/kg.
As for `C[C@H]1COc2c(N3CCN(C)CC3)c(F)cc3c(=O)c(C(=O)O)cn1c23.C[C@H]1COc2c(N3CCN(C)CC3)c(F)cc3c(=O)c(C(=O)O)cn1c23.O` [LEVOFLOXACIN], the MIC came out at 32 µg/mL against Staphylococcus aureus [12]; 16 µg/mL in the series on Staphylococcus aureus [13]; 8 ng/mL in the series with Klebsiella pneumoniae; 16 µg/mL in the series with Staphylococcus aureus [14]; 1 µg/mL against Streptococcus agalactiae; 8 µg/mL in the series on Staphylococcus aureus [15]. The MIC was 1 µg/mL with Enterococcus faecalis; 1 µg/mL in the series with Staphylococcus aureus [16]; 16 µg/mL in the series with Staphylococcus aureus [17]; 0.5 µg/mL in series [18]; 2 µg/mL in the series on Streptococcus sanguinis; 0.12 µg/mL in series [19]. Also, the MIC with Staphylococcus aureus [20] was found to be 8 µg/mL; against Phocaeicola vulgatus, 1 µg/mL; in the series with Streptococcus pyogenes it was 1 µg/mL. Moreover, the ED50 in the series on Mus musculus [8] was over 100 mg/kg; in the series with Mus musculus [9], over 100 mg/kg; with Mus musculus [10] it was 5.92 mg/kg.
Regarding `CCn1cc(C(=O)O)c(=O)c2cc(F)c(N3CCN(C)CC3)cc21` [PEFLOXACIN], the pKa worked out at 9.97 in the series “physchem [5]” and 6.15 in the series “physchem [6]”.
`C[C@H]1CCc2c(N3CCC(O)CC3)c(F)cc3c(=O)c(C(=O)OCCN4CCCC4)cn1c23`: the 50% effective dose (ED50) in the series with Mus musculus [1] is over 150 mg/kg. In addition, the MIC turned out to be 1 µg/mL (≈ 2.19 µM) with Staphylococcus aureus [2] and 0.06 µg/mL (≈ 0.131 µM) against Staphylococcus aureus [3].
As to `C[C@H]1CCc2c(N3CCC(O)CC3)c(F)cc3c(=O)c(C(=O)OCCN4CCCCC4)cn1c23`, the ED50 in the series on Mus musculus [1] was over 150 mg/kg. Besides, the results for the MIC against Staphylococcus aureus [2] and in the series with Staphylococcus aureus [3] were 2 µg/mL (≈ 4.24 µM) and 0.25 µg/mL (≈ 0.53 µM), respectively.
Turning to `CCN(CC)CCS(=O)(=O)[C@@H]1CCN2C(=O)c3coc(n3)CC(=O)C[C@H](O)/C=C(C)/C=C/CNC(=O)/C=C/[C@@H](C)[C@@H](C(C)C)OC(=O)[C@@H]12.CC[C@H]1NC(=O)[C@@H](NC(=O)c2ncccc2O)[C@@H](C)OC(=O)[C@H](c2ccccc2)NC(=O)[C@@H]2CC(=O)[C@H](CS[C@@H]3CN4CCC3CC4)CN2C(=O)[C@H](Cc2ccc(N(C)C)cc2)N(C)C(=O)[C@@H]2CCCN2C1=O` [QUINUPRISTIN/DALFOPRISTIN] ({Picolinoyl(3-OH)}-T[dAbu]P[NMePhe(4-NMe2)][X1][Phg]; ester 1-C), the MIC against Staphylococcus aureus [12] is 1 µg/mL; against Staphylococcus aureus [21], 1 µg/mL; against Staphylococcus aureus [13], 1 µg/mL; in the series on Staphylococcus aureus [14] it was 1 µg/mL; in the series on Staphylococcus aureus [17], 0.5 µg/mL; in the series with Staphylococcus aureus [20], 1 µg/mL.
Consider `CO[C@@H]1C(OC2CCN(c3c(F)cc4c(=O)c(C(=O)O)cn5c4c3CC[C@@H]5C)CC2)O[C@@H](CO)[C@@H](O)[C@@H]1O` (single isomer, unassigned), for which, in the series on Mus musculus [1], the median effective dose (ED50) is over 100 mg/kg. The MIC in the series with Staphylococcus aureus [2] and against Staphylococcus aureus [3] was 0.1 µg/mL (≈ 0.186 µM) throughout.
On to `C[C@H]1CCc2c(N3CCC(OC(=O)C(C)(C)C)CC3)c(F)cc3c(=O)c(C(=O)OCOC(=O)C(C)(C)C)cn1c23`, for which the ED50 in the series on Mus musculus [1] is over 150 mg/kg. For the same compound, the MIC in the series with Staphylococcus aureus [2] and against Staphylococcus aureus [3] was over 16 µg/mL in each case.
As to `C[C@H]1CCc2c(N3CCC(O)CC3)c(F)cc3c(=O)c(C(=O)OCCN4CCNCC4)cn1c23`, the 50% effective dose (ED50) in the series with Mus musculus [1] is over 100 mg/kg. The MIC against Staphylococcus aureus [2] is 0.5 µg/mL (≈ 1.06 µM); against Staphylococcus aureus [3], 0.12 µg/mL (≈ 0.254 µM).
